{
  "source": "patent US12329799B2",
  "about": "“Peptidyl inhibitors of calcineurin-NFAT interaction” (Ohio State Innovation Foundation, priority 2018, dated 2025)",
  "key": {"HeLa cells [1]": {"system": "HeLa cells", "assay": "Cytosolic delivery assay (NF-labeled peptides, flow cytometry)", "type": "cell-based", "conditions": "5 μM, 2 h, relative to CPP9 = 100%", "method": "The NF fluorescence intensity of the treated cells therefore reflects the amount of the peptide that has reached the cytosol and nucleus of the cells. […] Live-cell confocal microscopic analysis confirmed that CNI93 reached the interior of HeLa cells.\nCytosolic Delivery Assay. HeLa cells maintained in DMEM supplemented with 10% FBS and 1% penicillin/streptomycin were seeded into 12-well plates (1.5×10^5 cells per well) and incubated overnight at 37° C., 5% CO2. The following day, the cells were washed with DPBS and incubated with 5 μM NF-labeled peptides dissolved in DMEM containing 10% FBS, 1% penicllin/streptomycin for 2 h at 37° C. in the presence of 5% CO2. After that, the cells were washed with DPBS and harvested from the plate by treatment with 0.25% trypsin for 5 min. Cells were centrifuged at 300×RCF, washed twice with cold DPBS, and resuspended in cold DPBS for flow cytometry analysis on a BD LSR II flow cytometer followed by data analysis and gating using Flowjo. Calculation of cytosolic uptake efficiencies was carried out as previously described by Qian, Z., et al., Discovery and Mechanism of Highly Efficient Cyclic Cell-Penetrating Peptides. Biochemistry 2016, 55, 2601-2612."}, "[2]": {"assay": "Maximum tolerated dose (body weight over 10 days)", "type": "in vivo"}, "HeLa cells [3]": {"system": "HeLa cells", "assay": "MTT assay, HeLa", "type": "cell-based", "conditions": "72 h", "method": "MTT Proliferation Assay. HeLa, Jurkat-Lucia, or H441 cells were seeded into a 96-well microplate (5000 cells per well) in full growth media and incubated at 37° C. overnight. A serial dilution of each compound was prepared in DPBS and then added to each well. The treated cells were incubated at 37° C. with 5% CO2 for 72 h. Following compound treatment, 10 μL of MTT stock solution was added to each well. After an additional 4 h at 37° C., 100 μL of SDS-HCl solubilizing solution was added to each well and the plate was returned to the incubator overnight at 37° C. A Tecan Infinite M1000 Pro microplate reader was used the following morning to measure the absorbance of the formazan product at 565 nm.\nPotential cytotoxicity of CNI101 (SEQ ID NO: 206) and CNI103 (SEQ ID NO: 208) was tested on HeLa cells by the MTT proliferation assay. HeLa cells were seeded into a 96-well microplate (5000 cells per well) in full growth media and incubated at 37° C. overnight. A serial dilution of each inhibitor was prepared in DPBS and then added to each well. The treated cells were incubated at 37° C. with 5% CO2 for 72 h. Following compound treatment, 10 μL of MTT stock solution was added to each well. After an additional 4 h at 37° C., 100 μL of SDS-HCl solubilizing solution was added to each well and the plate was returned to the incubator overnight at 37° C. A Tecan Infinite M1000 Pro microplate reader was used the following morning to measure the absorbance of the formazan product at 565 nm."}, "[4]": {"system": "NFAT-mediated luciferase expression in Jurkat cells", "assay": "NFAT luciferase assay in Jurkat cells", "type": "cell-based", "conditions": "10 μM, Jurkat cells", "method": "In a separate experiment, CNI93 was also tested against Jurkat cells expressing a luciferase gene under the transcriptional control of NFAT.\nNFAT Luciferase Assay. Jurkat-Lucia cells maintained in RPMI-1640 supplemented with 10% FBS, 1% penicillin/streptomycin (v/v/v) and 100 μg/mL normocin were harvested after a passage with 50 μg/mL selective antibiotic Zeocin at 300×RCF for 5 min. Cells were resuspended in warm RPMI-1640 with antibiotics but without FBS to a final density of 2×10^6 cells/mL and seeded into white-on-white cell-culture treated 96-well plates. To each well was added 10 μL of DPBS containing compounds which dilute to the desired concentrations followed by 170 μL of cell suspension […] and incubated at 37° C. for 2 h. The cells were induced by treatment with 50 ng/mL PMA and 3 μg/mL ionomycin, Ca^2+ salt in FBS to achieve a final FBS concentration of 10% in each well (with FBS only as control). The plate was incubated for an additional 4 h at 37° C., when 20 μL of each sample was withdrawn and mixed with 50 μL of Quanti-Luc assay solution. The luminescence of the mixture was immediately measured on a Tecan Infinite M1000 plate reader."}, "[5]": {"system": "NFATc3 nuclear translocation", "assay": "LPS-induced NFATc3 nuclear translocation in macrophages (immunofluorescence)", "type": "cell-based, mouse", "conditions": "1 μM peptide pretreatment, LPS stimulation", "method": "Endotoxin lipopolysaccharide (LPS) was previously shown to induce NFATc3 translocation from the cytoplasm into the nucleus and upregulation of NFATc3 target genes in macrophages.\nImmunofluorescence. Mouse BMDM were pretreated with 1 μM of control CPP9 (SEQ ID NO: 76)-VAVAA (SEQ ID NO: 224)-Biotin or CNI93-Biotin peptides for 5 min and stimulated with PBS or LPS (100 ng/mL) for 1 h. Treated cells were washed, fixed in 4% paraformaldehyde and incubated sequentially with anti-rabbit NFATc3, Anti-rabbit Alexa Fluor™ 488 Conjugate and Alexa Fluor™ 594 Streptavidin. Cells were washed three times in 1×PBS after incubation with each antibody."}, "Calcineurin (GST-CN)": {"molecular_target": "T1, Calcineurin (GST-CN) (Homo sapiens, UniProt Q08209)", "T1 construct": "made in house; host or cells: E. coli BL21", "T1 sequence (Q08209 2-347 limits assumed)": "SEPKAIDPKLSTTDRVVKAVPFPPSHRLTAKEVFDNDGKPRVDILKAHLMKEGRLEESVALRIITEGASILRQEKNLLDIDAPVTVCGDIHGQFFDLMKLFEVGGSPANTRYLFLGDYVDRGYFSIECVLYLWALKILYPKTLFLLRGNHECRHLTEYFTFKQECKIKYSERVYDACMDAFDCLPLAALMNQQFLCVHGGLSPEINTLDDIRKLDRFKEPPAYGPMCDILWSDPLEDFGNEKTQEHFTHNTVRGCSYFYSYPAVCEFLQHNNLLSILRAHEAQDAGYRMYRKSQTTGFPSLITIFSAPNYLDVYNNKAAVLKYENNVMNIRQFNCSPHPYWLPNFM", "assay": "Direct binding of FITC-labeled peptides to CN by fluorescence anisotropy/polarization", "method": "To facilitate concentration determination and binding analysis by fluorescence anisotropy (FA), a dipeptide Tyr-Lys was added to the C-terminus of ZIZIT (SEQ ID NO:1) and the lysine side chain was labeled with fluorescein isothiocyanate (FITC). The resulting peptide,\nFluorescence Polarization. Fluorescence polarization (FP) experiments were carried out to measure binding affinity in both direct and competitive binding experiments using GST-CN and peptides prepared as mentioned previously. For direct binding, 50 nM FITC-labeled peptide was prepared in PBS, pH 7.4 containing 5 mM DTT and 0.01% Triton-X100 and then added to GST-CN diluted in PBS containing 0.01% Triton-X100. Solutions were incubated for 1 h at RT with gentle mixing and then pipetted into black 384-well microplates. Fluorescence polarization was measured on a TECAN Infinite M1000 plate reader and titration curves were fitted using both KaelidaGraph v 3.6 and GraphPad PRISM to the equation:\n[formula] • where FP is the measured fluorescence polarization, Amin is the minimum FP value, Amax is the maximum FP signal, Qb is the quantum yield of the bound fluorophore, Qf is the quantum yield of the free fluorophore, L is the ligand concentration, KD is the dissociation constant and x is the protein concentration."}},
  "note": "Positions of bridges follow the written chain, without caps; N, C: chain ends. Non-standard residues stand in square brackets, D forms with d. Residues, ends and D or L forms follow the SMILES beside them. Chains are numbered I, II in the order given. *: point of attachment. Benzoyl(2,3-Cl2) = O=C(c1cccc(Cl)c1Cl)*; 2Nal = N[C@@H](Cc1ccc2ccccc2c1)C(=O)O; Tle = CC(C)(C)[C@H](N)C(=O)O; βAla = NCCC(=O)O",
  "data": [
    {"smiles": "CC[C@H](C)[C@H](NC(=O)[C@@H](NC(=O)c1cccc(Cl)c1Cl)C(C)(C)C)C(=O)N[C@H](C(=O)N[C@H](C(=O)N[C@H](C(=O)N[C@@H](CCC(N)=O)C(=O)N[C@@H](Cc1c[nH]cn1)C(=O)N[C@H](CC(C)C)C(=O)N[C@@H](CO)C(=O)NCCC(=O)N[C@@H](CCCCNC(=O)CC[C@@H]1NC(=O)[C@@H](CCCNC(=N)N)NC(=O)[C@H](CCCNC(=N)N)NC(=O)[C@@H](CCCNC(=N)N)NC(=O)[C@H](CCCNC(=N)N)NC(=O)[C@H](Cc2ccc3ccccc3c2)NC(=O)[C@@H](Cc2ccccc2)NC1=O)C(N)=O)[C@@H](C)O)[C@@H](C)CC)C(C)(C)C", "note": "[CNI93] (I: {Benzoyl(2,3-Cl2)}-[Tle]I[Tle]ITQH[dL]S[βAla]K-NH2 / II: cyclo([2Nal]R[dR]R[dR]E[dF]); amide I:11-II:6 (inferred); ring closure inferred)", "values": [
      {"measurement": "relative cytosolic delivery efficiency", "setting": "HeLa cells [1]", "value": 109, "unit": "%"},
      {"measurement": "body weight", "setting": "[2]; intranasal 10 mg/kg", "value": "steady increase in body weight similar to healthy controls"},
      {"measurement": "survival and signs of distress", "setting": "[2]; intranasal 10 mg/kg", "value": "survived and showed no visible sign of distress"},
      {"measurement": "body weight", "setting": "[2]; intranasal 50 mg/kg", "value": "steady increase in body weight similar to healthy controls"},
      {"measurement": "survival and signs of distress", "setting": "[2]; intranasal 50 mg/kg", "value": "survived and showed no visible sign of distress"},
      {"measurement": "cytotoxicity", "setting": "HeLa cells [3]; 25 μM", "value": "No significant cytotoxicity"},
      {"measurement": "cell viability", "setting": "HeLa cells [3]; 50 μM", "value": "Reduction in cell viability"},
      {"measurement": "phorbol ester- and ionomycin-induced expression of luciferase", "setting": "[4]", "value": "potently inhibited"},
      {"measurement": "LPS-induced nuclear translocation of NFATc3", "setting": "[5]", "value": "completely blocked"},
      {"measurement": "lower CN-binding affinity relative to peptide 14", "setting": "Calcineurin (GST-CN)", "value": 8, "unit": "fold"}
    ]}
  ]
}
